Results reported in patent US10233173B2, “Substituted 1,2,3-triazoles as NR2B-selective NMDA modulators” (JANSSEN PHARMACEUTICA NV, priority 2016, dated 2019).

Target: human GluN1/GluN2B NMDA receptors (Homo sapiens, UniProt Q05586+Q13224)
Assay: Cell-based calcium flux (FLIPR) assay on cloned human NR1/NR2B ion channels expressed in mammalian cells
Conditions: standard assay; glutamate at ~EC80; FLIPR calcium flux
Outline: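 Calcium influx followed by FLIPR fluorescence after 5 min compound exposure and a further 5 min co-agonist challenge: 10 μM glycine with glutamate at ~EC80 (standard) or EC40 (HTS).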

Chain of human GluN1/GluN2B NMDA receptors (Q13224 27-1484, other chains not shown): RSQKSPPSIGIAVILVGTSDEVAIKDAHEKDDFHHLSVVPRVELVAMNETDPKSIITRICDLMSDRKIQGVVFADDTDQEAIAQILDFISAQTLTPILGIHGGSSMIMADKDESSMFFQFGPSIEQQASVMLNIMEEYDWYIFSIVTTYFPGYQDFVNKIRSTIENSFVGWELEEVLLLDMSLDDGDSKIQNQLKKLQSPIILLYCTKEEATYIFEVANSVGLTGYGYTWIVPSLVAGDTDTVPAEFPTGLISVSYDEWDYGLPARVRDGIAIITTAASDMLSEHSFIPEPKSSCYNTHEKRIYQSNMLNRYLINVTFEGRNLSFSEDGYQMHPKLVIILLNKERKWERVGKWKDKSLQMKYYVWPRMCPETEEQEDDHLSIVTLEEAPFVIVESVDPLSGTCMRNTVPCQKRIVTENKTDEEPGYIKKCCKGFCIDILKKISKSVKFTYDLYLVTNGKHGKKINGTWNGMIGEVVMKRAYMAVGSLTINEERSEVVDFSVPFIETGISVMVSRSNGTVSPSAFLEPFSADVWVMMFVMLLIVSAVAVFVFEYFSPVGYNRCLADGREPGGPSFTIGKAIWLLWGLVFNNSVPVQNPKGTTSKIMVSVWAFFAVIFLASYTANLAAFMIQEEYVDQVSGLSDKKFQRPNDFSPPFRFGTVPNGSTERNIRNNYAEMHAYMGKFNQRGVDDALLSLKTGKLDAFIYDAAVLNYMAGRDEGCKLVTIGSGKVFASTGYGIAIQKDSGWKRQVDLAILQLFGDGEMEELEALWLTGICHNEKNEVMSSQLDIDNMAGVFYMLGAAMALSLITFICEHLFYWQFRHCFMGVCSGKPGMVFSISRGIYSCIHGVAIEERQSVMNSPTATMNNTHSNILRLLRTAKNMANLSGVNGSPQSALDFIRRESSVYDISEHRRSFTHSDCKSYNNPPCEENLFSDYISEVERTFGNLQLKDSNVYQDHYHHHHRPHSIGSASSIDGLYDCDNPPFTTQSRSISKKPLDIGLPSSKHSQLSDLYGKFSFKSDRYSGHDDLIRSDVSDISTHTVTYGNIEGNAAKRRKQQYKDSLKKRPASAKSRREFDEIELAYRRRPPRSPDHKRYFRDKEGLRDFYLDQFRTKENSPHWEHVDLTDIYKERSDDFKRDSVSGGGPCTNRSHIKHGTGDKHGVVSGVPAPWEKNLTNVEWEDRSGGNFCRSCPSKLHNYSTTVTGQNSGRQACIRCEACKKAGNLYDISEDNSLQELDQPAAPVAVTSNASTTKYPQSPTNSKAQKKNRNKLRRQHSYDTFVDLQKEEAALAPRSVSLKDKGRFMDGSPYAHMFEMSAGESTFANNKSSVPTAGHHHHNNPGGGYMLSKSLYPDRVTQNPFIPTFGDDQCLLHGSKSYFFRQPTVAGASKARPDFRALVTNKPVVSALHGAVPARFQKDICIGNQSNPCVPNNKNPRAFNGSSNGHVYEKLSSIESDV

Row | SMILES | IC50
1 | CCNc1ccnc(OCc2cn(-c3ccc(F)c(C(F)F)c3)nn2)n1 [Example 691, N-Ethyl-2-((1-(3-(difluoromethyl)-4-fluorophenyl)-1H-1,2,3-triazol-4-yl)methoxy)pyrimidin-4-amine] | 0.006 µM
2 | Fc1cnc(OCc2cn(-c3cccc(F)c3F)nn2)nc1 [Example 606, 2-[[1-(2,3-Difluorophenyl)triazol-4-yl]methoxy]-5-fluoro-pyrimidine] | 17.5 µM
3 | Cc1c(F)ccc(-n2cc(COc3nccc(C(F)F)n3)nn2)c1F [Example 642, 4-(Difluoromethyl)-2-[[1-(2,4-difluoro-3-methyl-phenyl)triazol-4-yl]methoxy]pyrimidine] | 2.21 µM
4 | Cc1ccc(OCc2cn(-c3ccc(F)c(C(F)(F)F)c3)nn2)nc1 [Example 431, 2-[[1-[4-Fluoro-3-(trifluoromethyl)phenyl]triazol-4-yl]methoxy]-5-methyl-pyridine] | 0.101 µM
5 | CNC(=O)c1cnc(OCc2cn(-c3ccc(F)c(C(F)(F)F)c3)nn2)nc1 [Example 452, 2-[[1-[4-Fluoro-3-(trifluoromethyl)phenyl]triazol-4-yl]methoxy]-N-methyl-pyrimidine-5-carboxamide] | 0.218 µM
6 | Fc1ccc(-n2cc(COc3ncccn3)nn2)cc1F [Example 597, 2-[[1-(3,4-Difluorophenyl)triazol-4-yl]methoxy]pyrimidine] | 2.1 µM
7 | Cc1c(F)cccc1-n1cc(COc2ncc(Cl)cn2)nn1 [Example 463, 5-Chloro-2-[[1-(3-fluoro-2-methyl-phenyl)triazol-4-yl]methoxy]pyrimidine] | 0.647 µM
8 | Cc1cnc(OCc2cn(-c3ccc(Cl)c(C(C)(F)F)c3)nn2)nc1C [Example 545, 2-[[1-[4-Chloro-3-(1,1-difluoroethyl)phenyl]triazol-4-yl]methoxy]-4,5-dimethyl-pyrimidine] | 0.006 µM
9 | CNc1nc(OCc2cn(-c3ccc(F)c(C(C)(F)F)c3)nn2)ncc1F [Example 578, 2-[[1-[3-(1,1-Difluoroethyl)-4-fluoro-phenyl]triazol-4-yl]methoxy]-5-fluoro-N-methyl-pyrimidin-4-amine] | 0.14 µM
10 | Fc1c(Cl)cccc1-n1cc(COc2ncccn2)nn1 [Example 611, 2-[[1-(3-Chloro-2-fluoro-phenyl)triazol-4-yl]methoxy]pyrimidine] | > 10 µM
11 | CC(F)(F)c1cc(-n2cc(COc3ncc(C(F)(F)F)cn3)nn2)ccc1Cl [Example 537, 2-[[1-[4-Chloro-3-(1,1-difluoroethyl)phenyl]triazol-4-yl]methoxy]-5-(trifluoromethyl)pyrimidine] | 0.016 µM
12 | Cc1nc(OCc2cn(-c3ccc(F)c(C)c3F)nn2)ncc1Cl [Example 650, 5-Chloro-2-[[1-(2,4-difluoro-3-methyl-phenyl)triazol-4-yl]methoxy]-4-methyl-pyrimidine] | 0.005 µM
13 | CCc1cnc(OCc2cn(-c3ccc(F)cc3C)nn2)nc1 [Example 491, 5-Ethyl-2-[[1-(4-fluoro-2-methyl-phenyl)triazol-4-yl]methoxy]pyrimidine] | 1.17 µM
14 | Cc1cnc(OCc2cn(-c3cc(C)c(F)cc3F)nn2)nc1 [Example 654, 2-[[1-(2,4-Difluoro-5-methyl-phenyl)triazol-4-yl]methoxy]-5-methyl-pyrimidine] | 0.979 µM
15 | CNc1nc(OCc2cn(-c3ccc(F)c(OC(F)F)c3)nn2)ncc1F [Example 518, 2-[[1-[3-(Difluoromethoxy)-4-fluoro-phenyl]triazol-4-yl]methoxy]-5-fluoro-N-methyl-pyrimidin-4-amine] | 0.092 µM
16 | CC(C)(O)c1ccc(OCc2cn(-c3ccc(F)c(C(F)(F)F)c3)nn2)nc1 [Example 433, 2-[6-[[1-[4-Fluoro-3-(trifluoromethyl)phenyl]triazol-4-yl]methoxy]-3-pyridyl]propan-2-ol] | 1.11 µM
17 | CC(F)(F)c1cc(-n2cc(COc3ncc(C4CC4)cn3)nn2)ccc1F [Example 587, 5-Cyclopropyl-2-[[1-[3-(1,1-difluoroethyl)-4-fluoro-phenyl]triazol-4-yl]methoxy]pyrimidine] | 0.041 µM
18 | COCc1ccnc(OCc2cn(-c3ccc(F)c(C)c3F)nn2)n1 [Example 645, 2-[[1-(2,4-Difluoro-3-methyl-phenyl)triazol-4-yl]methoxy]-4-(methoxymethyl)pyrimidine] | 0.799 µM
19 | CCc1cnc(OCc2cn(-c3cc(C)ccn3)nn2)nc1 [Example 663, 5-Ethyl-2-[[1-(4-methyl-2-pyridyl)triazol-4-yl]methoxy]pyrimidine] | 2.45 µM
20 | CC1(F)CN(c2cnc(OCc3cn(-c4ccc(F)c(C(F)F)c4)nn3)nc2)C1 [Example 420, 2-((1-(3-(Difluoromethyl)-4-fluorophenyl)-1H-1,2,3-triazol-4-yl)methoxy)-5-(3-fluoro-3-methylazetidin-1-yl)pyrimidine] | 0.26 µM

Same assay, conditions: standard assay; human GluN1/GluN2B, calcium flux (FLIPR), glutamate ~EC80

Row | SMILES | IC50
21 | FC(F)c1cc(-n2cc(CNc3ncccn3)nn2)ccc1Cl [Example 109, N-[[1-[4-Chloro-3-(difluoromethyl)phenyl]triazol-4-yl]methyl]pyrimidin-2-amine] | 1.26 µM
22 | FC(F)(F)Oc1cccc(-n2cc(COc3ncccn3)nn2)c1 [Example 341, 2-[[1-[3-(Trifluoromethoxy)phenyl]triazol-4-yl]methoxy]pyrimidine] | 0.538 µM
23 | COc1cnc(OCc2cn(-c3ccc(OC(F)F)cc3)nn2)nc1 [Example 331, 2-[[1-[4-(Difluoromethoxy)phenyl]triazol-4-yl]methoxy]-5-methoxy-pyrimidine] | 0.098 µM
24 | Cc1cnc(OCc2cn(-c3cccc(C(F)(F)F)c3)nn2)nc1 [Example 286, 5-Methyl-2-[[1-[3-(trifluoromethyl)phenyl]triazol-4-yl]methoxy]pyrimidine] | 0.012 µM
25 | FC(F)c1cc(-n2cc(CNc3ncc(Cl)cn3)nn2)ccc1Cl [Example 200, 5-Chloro-N-[[1-[4-chloro-3-(difluoromethyl)phenyl]triazol-4-yl]methyl]pyrimidin-2-amine] | 0.131 µM
26 | COc1cnc(OCc2cn(-c3ccc(Cl)c(OC)c3)nn2)nc1 [Example 87] | 0.012 µM
27 | COC(C)c1cnc(OCc2cn(-c3cccc(C(C)(F)F)c3)nn2)nc1 (racemic) [Example 311, (R/S)-2-[[1-[3-(1,1-Difluoroethyl)phenyl]triazol-4-yl]methoxy]-5-(1-methoxyethyl)pyrimidine] | 1.58 µM
28 | FC(F)Oc1ccc(-n2cc(COc3ncc(Cl)cn3)nn2)cc1 [Example 332, 5-Chloro-2-[[1-[4-(difluoromethoxy)phenyl]triazol-4-yl]methoxy]pyrimidine] | 0.2 µM
29 | Fc1cnc(OCc2cn(-c3ccc(Cl)c(OC(F)F)c3)nn2)nc1NCC(F)F [Example 388, 2-[[1-[4-Chloro-3-(difluoromethoxy)phenyl]triazol-4-yl]methoxy]-N-(2,2-difluoroethyl)-5-fluoro-pyrimidin-4-amine] | 0.842 µM
30 | Cc1cnc(OCc2cn(-c3cccc(C(F)F)c3)nn2)nc1 [Example 89, 2-[[1-[3-(Difluoromethyl)phenyl]triazol-4-yl]methoxy]-5-methyl-pyrimidine] | 0.011 µM
31 | Cc1cnc(OCc2cn(-c3ccnc(Br)c3)nn2)nc1 [Example 177, 2-[[1-(2-Bromo-4-pyridyl)triazol-4-yl]methoxy]-5-methyl-pyrimidine] | 0.172 µM
32 | Cc1cnc(OCc2cn(-c3cncc(C)c3)nn2)nc1 [Example 176, 5-Methyl-2-[[1-(5-methyl-3-pyridyl)triazol-4-yl]methoxy]pyrimidine] | 0.929 µM
33 | COc1cnc(OCc2cn(-c3cccc(F)c3)nn2)nc1 [Example 230, 2-[[1-(3-Fluorophenyl)triazol-4-yl]methoxy]-5-methoxy-pyrimidine] | 0.275 µM
34 | Fc1ccc(-n2cc(COc3ncccn3)nn2)cc1Br [Example 9, 2-[[1-(3-Bromo-4-fluoro-phenyl)triazol-4-yl]methoxy]pyrimidine] | 0.02 µM
35 | Fc1ccc(-n2cc(COc3nccc(N4CCOCC4)n3)nn2)cc1OC(F)F [Example 170, 4-[2-[[1-[3-(Difluoromethoxy)-4-fluoro-phenyl]triazol-4-yl]methoxy]pyrimidin-4-yl]morpholine] | 0.26 µM
36 | COc1cnc(OCc2cn(-c3cccc(C)c3)nn2)nc1 [Example 248, 5-Methoxy-2-[[1-(m-tolyl)triazol-4-yl]methoxy]pyrimidine] | 0.009 µM
37 | CCc1cnc(OCc2cn(-c3cccc(OC(F)(F)F)c3)nn2)nc1 [Example 351, 5-Ethyl-2-[[1-[3-(trifluoromethoxy)phenyl]triazol-4-yl]methoxy]pyrimidine] | 0.015 µM
38 | Cc1ccnc(NCc2cn(-c3ccc(Cl)c(C(F)F)c3)nn2)n1 [Example 201, N-[[1-[4-Chloro-3-(difluoromethyl)phenyl]triazol-4-yl]methyl]-4-methyl-pyrimidin-2-amine] | 0.1 µM
39 | Cc1cnc(OCc2cn(-c3ccc(C(F)(F)F)s3)nn2)nc1 [Example 120, 5-Methyl-2-((1-(5-(trifluoromethyl)thiophen-2-yl)-1H-1,2,3-triazol-4-yl)methoxy)pyrimidine] | 0.005 µM
40 | Cc1ccnc(OCc2cn(-c3ccc(F)c(OC(F)F)c3)nn2)n1 [Example 64, 2-[[1-[3-(Difluoromethoxy)-4-fluoro-phenyl]triazol-4-yl]methoxy]-4-methyl-pyrimidine] | 0.007 µM
41 | COc1cnc(OCc2cn(-c3cccc(C(C)C)c3)nn2)nc1 [Example 264, 2-[[1-(3-Isopropylphenyl)triazol-4-yl]methoxy]-5-methoxy-pyrimidine] | 0.006 µM
42 | Cc1cccc(-n2cc(COc3ncc(F)cn3)nn2)c1 [Example 247, 5-Fluoro-2-[[1-(m-tolyl)triazol-4-yl]methoxy]pyrimidine] | 0.34 µM
43 | Cc1cnc(OCc2cn(-c3ccc4c(c3)CCC4)nn2)nc1 [Example 366, 2-[(1-Indan-5-yltriazol-4-yl)methoxy]-5-methyl-pyrimidine] | 0.02 µM
44 | Cc1cccc(-n2cc(COc3ncc(Cl)c(C)n3)nn2)c1 [Example 253, 5-Chloro-4-methyl-2-[[1-(m-tolyl)triazol-4-yl]methoxy]pyrimidine] | 0.007 µM
